Values quoted from earlier work, collected in PMC2833348 (Bioorganic & medicinal chemistry letters, 2010).

Test system: cell - cell fusion (CCF)
Conditions: read-out: IC50 against cell - cell fusion (CCF)

SMILES: COc1ccc(S(=O)(=O)O)cc1/N=N/c1c(S(=O)(=O)O)cc2cc(Nc3nc(Nc4ccccc4)nc(Nc4cc(C)c(/N=N/c5cc(S(=O)(=O)O)cc6cc(S(=O)(=O)O)cc(O)c56)cc4OC)n3)ccc2c1O [ADS-J1]
- IC50: 4.2 µM
